Read-outs that look alike come from different tables or passages of the source.
Target: T1, Human BCL-XL protein (N-terminal HiBiT tagged BCL-XL in HT1080 cells) (Homo sapiens, UniProt Q07817)
T1 construct: expressed in transfected cells; host or cells: HT-1080 (ATCC CCL-121), stably transduced with lentivirus pLV-UBC-N-HiBiT-BCL-XL-PGK-puro and selected with puromycin
Experiment: HiBiT based degradation assay
Format: cell-based
Conditions: HT1080 cells expressing HiBiT-BCL-XL; for Ymin (24 h) / Ymin (6 h): BCL-XL degradation normalized with DMSO control; for DC50: BCL-XL degradation
Outline: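 This HiBiT degradation assay measured loss of BCL-XL in HT1080 cells that stably express an N-terminal HiBiT-BCL-XL fusion delivered by lentivirus. Cells were added to compound-spotted 384-well plates, and luminescence was read on a PHERAstar FSX reader. Signal was expressed relative to DMSO controls, curves were fitted by four-parameter logistic regression, and for hook-shaped curves the Ymin point served as the bottom plateau when calculating EC50.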

T1 sequence (Q07817 whole entry): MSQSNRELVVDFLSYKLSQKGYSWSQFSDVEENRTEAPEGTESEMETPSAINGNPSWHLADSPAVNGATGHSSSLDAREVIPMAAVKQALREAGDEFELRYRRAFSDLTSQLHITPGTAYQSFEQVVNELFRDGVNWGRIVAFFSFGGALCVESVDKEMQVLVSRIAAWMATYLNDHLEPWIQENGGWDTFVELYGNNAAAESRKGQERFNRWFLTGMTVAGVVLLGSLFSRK

With `Cc1c(O[C@H]2CC[C@H](CCCC(=O)N3CCN(c4ccc5c(C6CCC(=O)NC6=O)nn(C)c5c4)CC3)CC2)cccc1-c1ccc(N2CCc3cccc(C(=O)Nc4nc5ccccc5s4)c3C2)nc1C(=O)O` (stereo partly drawn) [Compound 227a, 6-(8-(benzo[d]thiazol-2-ylcarbamoyl)-3,4-dihydroisoquinolin-2(1H)-yl)-3-(3-(((1s,4r)-4-(4-(4-(3-(2,6-dioxopiperidin-3-yl)-1-methyl-1H-indazol-6-yl)piperazin-1-yl)-4-oxobutyl)cyclohexyl)oxy)-2-methylphenyl)picolinic acid] the “Ymin (24 h)” value (24 h) was “A (Ymin < 50%)” and the DC50 (24 h, read-out: EC50 (24 h)) was under 100 nM.
For `Cc1c(OCCN2CCN(CC3CCN(c4cccc5c(C6CCC(=O)NC6=O)nn(C)c45)CC3)CC2)cccc1-c1ccc(N2CCc3cccc(C(=O)Nc4nc5ccccc5s4)c3C2)nc1C(=O)O` (stereo not drawn) [Compound 228, 6-(8-(benzo[d]thiazol-2-ylcarbamoyl)-3,4-dihydroisoquinolin-2(1H)-yl)-3-(3-(2-(4-((1-(3-(2,6-dioxopiperidin-3-yl)-1-methyl-1H-indazol-7-yl)piperidin-4-yl)methyl)piperazin-1-yl)ethoxy)-2-methylphenyl)picolinic acid], the “Ymin (24 h)” value (24 h) was “B (50% ≤ Ymin < 70%)” and the DC50 (24 h, read-out: EC50 (24 h)) was under 100 nM.
With `Cc1c(OCCC(F)(F)C2CCN(CC(=O)Nc3ccc4c(C5CCC(=O)NC5=O)nn(C)c4c3)CC2)cccc1-c1ccc(N2CCc3cccc(C(=O)Nc4nc5ccccc5s4)c3C2)nc1C(=O)O` (stereo not drawn) [Compound 229, 6-(8-(benzo[d]thiazol-2-ylcarbamoyl)-3,4-dihydroisoquinolin-2(1H)-yl)-3-(3-(3-(1-(2-((3-(2,6-dioxopiperidin-3-yl)-1-methyl-1H-indazol-6-yl)amino)-2-oxoethyl)piperidin-4-yl)-3,3-difluoropropoxy)-2-methylphenyl)picolinic acid] the “Ymin (24 h)” value (24 h) was “B (50% ≤ Ymin < 70%)” and the DC50 (24 h, read-out: EC50 (24 h)) was under 100 nM.
With `Cc1c(OCCCC2CCN(CCN3CCN(c4cccc5c(C6CCC(=O)NC6=O)nn(C)c45)CC3)CC2)cccc1-c1ccc(N2CCc3cccc(C(=O)Nc4nc5ccccc5s4)c3C2)nc1C(=O)O` (stereo not drawn) [Compound 230, 6-(8-(benzo[d]thiazol-2-ylcarbamoyl)-3,4-dihydroisoquinolin-2(1H)-yl)-3-(3-(3-(1-(2-(4-(3-(2,6-dioxopiperidin-3-yl)-1-methyl-1H-indazol-7-yl)piperazin-1-yl)ethyl)piperidin-4-yl)propoxy)-2-methylphenyl)picolinic acid] the “Ymin (24 h)” value (24 h) was “A (Ymin < 50%)” and the DC50 (24 h, read-out: EC50 (24 h)) was under 100 nM.
For `Cc1c(OCC[C@@H]2CCN(CC(=O)Nc3cccc4c(C5CCC(=O)NC5=O)nn(C)c34)C2)cccc1-c1ccc(N2CCc3cccc(C(=O)Nc4nc5ccccc5s4)c3C2)nc1C(=O)O` (stereo partly drawn) [Compound 231a, 6-[8-(1,3-benzothiazol-2-ylcarbamoyl)-3,4-dihydro-1H-isoquinolin-2-yl]-3-[3-[2-[(3S)-1-[2-[[3-(2,6-dioxo-3-piperidyl)-1-methyl-indazol-7-yl]amino]-2-oxo-ethyl]pyrrolidin-3-yl]ethoxy]-2-methyl-phenyl]pyridine-2-carboxylic acid], the “Ymin (24 h)” value (24 h) was “B (50% ≤ Ymin < 70%)” and the DC50 (24 h, read-out: EC50 (24 h)) was under 100 nM.
In the case of `Cc1c(OCC[C@H]2CCN(CC(=O)Nc3cccc4c(C5CCC(=O)NC5=O)nn(C)c34)C2)cccc1-c1ccc(N2CCc3cccc(C(=O)Nc4nc5ccccc5s4)c3C2)nc1C(=O)O` (stereo partly drawn) [Compound 231b, 6-[8-(1,3-benzothiazol-2-ylcarbamoyl)-3,4-dihydro-1H-isoquinolin-2-yl]-3-[3-[2-[(3R)-1-[2-[[3-(2,6-dioxo-3-piperidyl)-1-methyl-indazol-7-yl]amino]-2-oxo-ethyl]pyrrolidin-3-yl]ethoxy]-2-methyl-phenyl]pyridine-2-carboxylic acid], the “Ymin (24 h)” value (24 h) is reported as “B (50% ≤ Ymin < 70%)” and the DC50 (24 h, read-out: EC50 (24 h)) is reported as under 100 nM.
For `Cc1c(OCCC2CCN(CCN3CCN(c4ccc5c(C6CCC(=O)NC6=O)nn(C)c5c4)CC3)CC2)cccc1-c1ccc(N2CCc3cccc(C(=O)Nc4nc5ccccc5s4)c3C2)nc1C(=O)O` (stereo not drawn) [Compound 232, 6-[8-(1,3-benzothiazol-2-ylcarbamoyl)-3,4-dihydro-1H-isoquinolin-2-yl]-3-[3-[2-[1-[2-[4-[3-(2,6-dioxo-3-piperidyl)-1-methyl-indazol-6-yl]piperazin-1-yl]ethyl]-4-piperidyl]ethoxy]-2-methyl-phenyl]pyridine-2-carboxylic acid], the “Ymin (24 h)” value (24 h) was “A (Ymin < 50%)” and the DC50 (24 h, read-out: EC50 (24 h)) was under 100 nM.
For `Cc1c(OCCC2CCN(CCN3CCN(c4cccc5c(C6CCC(=O)NC6=O)nn(C)c45)CC3)CC2)cccc1-c1ccc(N2CCc3cccc(C(=O)Nc4nc5ccccc5s4)c3C2)nc1C(=O)O` (stereo not drawn) [Compound 233, 6-[8-(1,3-benzothiazol-2-ylcarbamoyl)-3,4-dihydro-1H-isoquinolin-2-yl]-3-[3-[2-[1-[2-[4-[3-(2,6-dioxo-3-piperidyl)-1-methyl-indazol-7-yl]piperazin-1-yl]ethyl]-4-piperidyl]ethoxy]-2-methyl-phenyl]pyridine-2-carboxylic acid], the “Ymin (24 h)” value (24 h) was “A (Ymin < 50%)” and the DC50 (24 h, read-out: EC50 (24 h)) was under 100 nM.
For `Cc1c(Oc2ccc(CC(F)(F)CN3CCN(c4ccc5c(C6CCC(=O)NC6=O)nn(C)c5c4)CC3)cc2)cccc1-c1ccc(N2CCc3cccc(C(=O)Nc4nc5ccccc5s4)c3C2)nc1C(=O)O` (stereo not drawn) [Compound 234, 6-[8-(1,3-benzothiazol-2-ylcarbamoyl)-3,4-dihydro-1H-isoquinolin-2-yl]-3-[3-[4-[3-[4-[3-(2,6-dioxo-3-piperidyl)-1-methyl-indazol-6-yl]piperazin-1-yl]-2,2-difluoro-propyl]phenoxy]-2-methyl-phenyl]pyridine-2-carboxylic acid], the “Ymin (6 h)” value (6 h) was “C (Ymin ≥ 70%)”, the “Ymin (24 h)” value (24 h) was “B (50% ≤ Ymin < 70%)” and the DC50 (6 h, read-out: EC50 (6 h)) was 100 to 1000 nM. It also gave a DC50 (24 h, read-out: EC50 (24 h)) of under 100 nM.
For `Cc1c(OCCCCN2CCC(CN3CCN(c4ccc5c(C6CCC(=O)NC6=O)nn(C)c5c4)CC3)CC2)cccc1-c1ccc(N2CCc3cccc(C(=O)Nc4nc5ccccc5s4)c3C2)nc1C(=O)O` (stereo not drawn) [Compound 235, 6-[8-(1,3-benzothiazol-2-ylcarbamoyl)-3,4-dihydro-1H-isoquinolin-2-yl]-3-[3-[4-[4-[[4-[3-(2,6-dioxo-3-piperidyl)-1-methyl-indazol-6-yl]piperazin-1-yl]methyl]-1-piperidyl]butoxy]-2-methyl-phenyl]pyridine-2-carboxylic acid], the “Ymin (24 h)” value (24 h) was “A (Ymin < 50%)” and the DC50 (24 h, read-out: EC50 (24 h)) was under 100 nM.
With `Cc1cc(OCCCC2CCN(CC(=O)Nc3cccc4c(C5CCC(=O)NC5=O)nn(C)c34)CC2)ccc1-c1ccc(N2CCc3cccc(C(=O)Nc4nc5ccccc5s4)c3C2)nc1C(=O)O` (stereo not drawn) [Compound 236, 6-(8-(Benzo[d]thiazol-2-ylcarbamoyl)-3,4-dihydroisoquinolin-2(1H)-yl)-3-(4-(3-(1-(2-((3-(2,6-dioxopiperidin-3-yl)-1-methyl-1H-indazol-7-yl)amino)-2-oxoethyl)piperidin-4-yl)propoxy)-2-methylphenyl)picolinic acid] the “Ymin (6 h)” value (6 h) was “B (50% ≤ Ymin < 70%)”, the “Ymin (24 h)” value (24 h) was “B (50% ≤ Ymin < 70%)” and the DC50 (6 h, read-out: EC50 (6 h)) was under 100 nM. For the same compound, the DC50 (24 h, read-out: EC50 (24 h)) was under 100 nM.
In the case of `Cc1c(OCCCCCCCCCN2CCN(c3cccc4c(C5CCC(=O)NC5=O)nn(C)c34)CC2)cccc1-c1ccc(N2CCc3cccc(C(=O)Nc4nc5ccccc5s4)c3C2)nc1C(=O)O` (stereo not drawn) [Compound 237, 6-[8-(1,3-benzothiazol-2-ylcarbamoyl)-3,4-dihydro-1H-isoquinolin-2-yl]-3-[3-[9-[4-[3-(2,6-dioxo-3-piperidyl)-1-methyl-indazol-7-yl]piperazin-1-yl]nonoxy]-2-methyl-phenyl]pyridine-2-carboxylic acid], the “Ymin (6 h)” value (6 h) is reported as “A (Ymin < 50%)” and the DC50 (6 h, read-out: EC50 (6 h)) is reported as under 100 nM.
`Cc1c(OCCOC2CCN(CC(=O)Nc3ccc4c(C5CCC(=O)NC5=O)nn(C)c4c3)CC2)cccc1-c1ccc(N2CCc3cccc(C(=O)Nc4nc5ccccc5s4)c3C2)nc1C(=O)O` (stereo not drawn) [Compound 238, 6-(8-(benzo[d]thiazol-2-ylcarbamoyl)-3,4-dihydroisoquinolin-2(1H)-yl)-3-(3-(2-((1-(2-((3-(2,6-dioxopiperidin-3-yl)-1-methyl-1H-indazol-6-yl)amino)-2-oxoethyl)piperidin-4-yl)oxy)ethoxy)-2-methylphenyl)picolinic acid] was tested, and the “Ymin (6 h)” value (6 h) was “B (50% ≤ Ymin < 70%)”, the “Ymin (24 h)” value (24 h) was “B (50% ≤ Ymin < 70%)” and the DC50 (6 h, read-out: EC50 (6 h)) was under 100 nM. For the same compound, the DC50 (24 h, read-out: EC50 (24 h)) was under 100 nM.
For `Cc1c(O[C@H]2CC[C@H](CC(F)(F)C(=O)N3CCN(c4ccc5c(C6CCC(=O)NC6=O)nn(C)c5c4)CC3)CC2)cccc1-c1ccc(N2CCc3cccc(C(=O)Nc4nc5ccccc5s4)c3C2)nc1C(=O)O` (stereo partly drawn) [Compound 239a, 6-(8-(benzo[d]thiazol-2-ylcarbamoyl)-3,4-dihydroisoquinolin-2(1H)-yl)-3-(3-(((1r,4r)-4-(3-(4-(3-(2,6-dioxopiperidin-3-yl)-1-methyl-1H-indazol-6-yl)piperazin-1-yl)-2,2-difluoro-3-oxopropyl)cyclohexyl)oxy)-2-methylphenyl)picolinic acid], the “Ymin (24 h)” value (24 h) was “B (50% ≤ Ymin < 70%)” and the DC50 (24 h, read-out: EC50 (24 h)) was under 100 nM.
With `Cc1c(OCCC[C@@H]2CCN(CC(=O)Nc3cccc4c(C5CCC(=O)NC5=O)nn(C)c34)C2)cccc1-c1ccc(N2CCc3cccc(C(=O)Nc4nc5ccccc5s4)c3C2)nc1C(=O)O` (stereo partly drawn) [Compound 240a, 6-[8-(1,3-benzothiazol-2-ylcarbamoyl)-3,4-dihydro-1H-isoquinolin-2-yl]-3-[3-[3-[(3R)-1-[2-[[3-(2,6-dioxo-3-piperidyl)-1-methyl-indazol-7-yl]amino]-2-oxo-ethyl]pyrrolidin-3-yl]propoxy]-2-methyl-phenyl]pyridine-2-carboxylic acid] the “Ymin (24 h)” value (24 h) was “B (50% ≤ Ymin < 70%)” and the DC50 (24 h, read-out: EC50 (24 h)) was under 100 nM.
